Reference: patent US20240049721A1, “COMPOSITIONS AND METHODS FOR CONTROLLING FUNGI” (priority 2020, published 2024)
Several values for one entry are separate records, joined by “and”; a condition that tells them apart may be missing. Identical values can stand only once.

How the values were obtained:
Fusarium graminearum = format: in vivo; conditions: wheat crop
Leaf blotch = assay: Wheat trial: leaf blotch; format: in vivo; conditions: wheat crop
[1] = Loading (encapsulation) efficacy of essential oils into AgriCell; format: physicochemical; conditions: EO encapsulated into AgriCell; original EO concentration 200 mg/mL; UV-Vis at 280 nm after ethanol extraction
Protocol: After AgriCells are purified, the concentrated AgriCell paste or dry lyophilized powder is loaded with EOs. If dry, the AgriCells are first homogenized into a finer powder through mechanical homogenization. A stock solution from each EO is prepared in ethanol at 100 mg/mL-200 mg/mL. Lyophilized AgriCells would then be suspended in a solution with the EO solution at a ratio of 1 g of dry AgriCells to 10 mL of EO solution. Once resuspended, the ethanol is allowed to evaporate overnight, leaving behind EO encapsulated AgriCells in the process. After this overnight period, encapsulated AgriCells are removed from the beaker, and the EO-encapsulated AgriCell powder is mechanically homogenized. This encapsulated product is ready for resuspension in its appropriate medium. Loading efficacy was measured and/or calculated as percentage of EO loaded into AgriCell after extraction with ethanol 100% v/v and quantification by UV-Vis spectroscopy. Eugenol, geraniol and thymol were quantified at 280 nm.

[2] = Thermal degradation of essential oils at 40° C.; format: physicochemical
Protocol: (§1) AgriCell-encapsulated EOs, which were AC-Eugenol, AC-Geraniol, and AC-Thymol, (200 mg/mL of EO loaded with 200 mg/mL of AgriCell) were diluted 1:10 in deionized water (total volume 1000 μL, 14 replicates for each EO) and the solutions were left at 40° C. for a total period of 7 days. One replicate of each EO per treatment was collected daily and tested for EO content. Results were reported as concentration of EO as function of time for each stability condition.

[3] = Oxidative degradation of essential oils under UV and Vis light; format: physicochemical
Protocol: as §1, with “under UV radiation” for “at 40° C.”, “content by UV-Vis spectroscopy as described in Example 2.” for “content.”

[4] = Thermogravimetric analysis (TGA) 37° C. to 500° C.; format: physicochemical; conditions: temperature increase from 37° C. to 500° C.
Protocol: FIG. 9 illustrates thermogravimetric Analysis (“TGA”) between AgriCell encapsulated Thymol (“AC Thymol”) and free Thymol (“Thymol”; not encapsulated by AgriCell) along with gradual increase of temperature from 37° C. to 500° C.

Botrytis cinerea = conditions: against B. cinerea; reported value; cited from earlier work

With `CC(C)(C)C(O)(CCc1ccc(Cl)cc1)Cn1cncn1` (stereo not drawn) [Tebuconazole (Folicur), Tebuconazole] the “Average FHB severity %” value (Fusarium graminearum) was 8.3% and 1.5%, the “FHB Incidence %” value (Fusarium graminearum) was 4.2% and 2.5% and the “Leaf blotch Incidence %” value (Leaf blotch) was 100%. The “Leaf blotch severity %” value (Leaf blotch) was 3.6% and 3.8%.

With `C=CCc1ccc(O)c(OC)c1` [eugenol] the encapsulation efficacy [1] was 95.5%, the “percentage of degradation (thermal)” value ([2]; 7 days, 20 mg/mL) was 82.6% and the “oxidative degradation (reduction of EO)” value ([3]; 7 days, 20 mg/mL) was 82.6%.

With `CC(C)=CCC/C(C)=C/CO` [geraniol] the encapsulation efficacy [1] was 89.0%, the “percentage of degradation (thermal)” value ([2]; 40° C., day 7, diluted 1:10 in deionized water) was 84.2% and the “oxidative degradation (reduction of EO)” value ([3]; UV radiation, after 7 days, diluted 1:10 in deionized water) was 72.6%.

For `Cc1ccc(C(C)C)c(O)c1` [thymol], the encapsulation efficacy [1] was 91.8%, the “percentage of degradation (thermal)” value ([2]; 7 days, 20 mg/mL) was 79.1% and the “oxidative degradation (reduction of EO)” value ([3]; 7 days, 20 mg/mL) was 55.8%. The “start of accelerated degradation (TGA)” value [4] was “about 62 °C” and the “reported EC50” value (Botrytis cinerea) was 21.32 µg/mL.
